In article PMC12136031 (Science Advances, 2025):
Read-outs that look alike come from different tables or passages of the source.

Legend:
NMDAR (1A/2B) = molecular target: T1, NMDAR (1A/2B) (Homo sapiens, UniProt Q05586+Q13224); experiment: Safety47 Ion Channel NMDAR (1A/2B); assay type: cell-based; conditions: for Emax: read-out: Max Response; for IC50: read-out: RC50 (IC50); for EC50: read-out: RC50 (EC50)
T1 construct: purchased Eurofins Panlab (Safety47 Safety Scan, contract panel)

EDNRA = molecular target: T2, EDNRA (Homo sapiens, UniProt P25101); experiment: Safety47 Calcium Flux EDNRA; assay type: cell-based; conditions: for Emax: read-out: Max Response; for EC50: read-out: RC50 (EC50); for IC50: read-out: RC50 (IC50)
T2 construct: purchased Eurofins Panlab Safety47 Safety Scan
T2 sequence (P25101 21-427): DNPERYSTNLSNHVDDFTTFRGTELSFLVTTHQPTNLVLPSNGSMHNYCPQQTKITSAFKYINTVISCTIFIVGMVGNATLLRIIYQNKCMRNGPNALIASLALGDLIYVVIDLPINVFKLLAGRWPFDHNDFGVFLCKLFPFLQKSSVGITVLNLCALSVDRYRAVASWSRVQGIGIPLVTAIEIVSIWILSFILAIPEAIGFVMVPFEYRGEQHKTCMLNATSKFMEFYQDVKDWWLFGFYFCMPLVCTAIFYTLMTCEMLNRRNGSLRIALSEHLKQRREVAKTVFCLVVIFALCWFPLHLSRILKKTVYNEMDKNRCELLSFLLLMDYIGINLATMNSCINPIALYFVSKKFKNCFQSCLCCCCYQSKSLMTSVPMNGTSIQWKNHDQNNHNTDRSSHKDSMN

SERT = molecular target: T3, SERT (Homo sapiens, UniProt P31645); experiment: Safety47 Transporter SERT; assay type: cell-based; conditions: Blocker; for Emax: read-out: Max Response; for IC50: read-out: RC50 (IC50)
T3 construct: purchased Eurofins Panlab Safety47 Safety Scan
T3 sequence (P31645 whole entry): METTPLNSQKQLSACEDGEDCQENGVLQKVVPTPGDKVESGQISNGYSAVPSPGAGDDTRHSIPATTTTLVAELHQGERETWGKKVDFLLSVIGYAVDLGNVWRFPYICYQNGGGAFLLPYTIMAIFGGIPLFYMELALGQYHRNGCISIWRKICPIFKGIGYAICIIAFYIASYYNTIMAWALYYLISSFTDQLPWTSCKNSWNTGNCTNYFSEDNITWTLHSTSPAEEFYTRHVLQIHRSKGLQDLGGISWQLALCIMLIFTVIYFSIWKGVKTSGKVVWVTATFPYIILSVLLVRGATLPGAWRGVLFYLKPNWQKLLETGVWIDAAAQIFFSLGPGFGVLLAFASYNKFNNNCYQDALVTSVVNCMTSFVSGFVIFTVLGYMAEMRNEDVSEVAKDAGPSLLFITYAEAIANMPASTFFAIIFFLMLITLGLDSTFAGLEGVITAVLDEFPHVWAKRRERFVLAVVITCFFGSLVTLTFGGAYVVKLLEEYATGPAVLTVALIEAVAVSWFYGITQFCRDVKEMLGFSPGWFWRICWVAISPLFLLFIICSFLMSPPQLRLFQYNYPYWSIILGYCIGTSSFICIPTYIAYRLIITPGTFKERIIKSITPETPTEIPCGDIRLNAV

TFEB ubiquitination = experiment: TFEB cellular ubiquitination assay; assay type: cell-based, human; conditions: TFEB-EGFP immunoprecipitated
CCKAR = molecular target: T4, CCKAR (Homo sapiens, UniProt P32238); experiment: Safety47 Calcium Flux CCKAR; assay type: cell-based; conditions: for Emax: read-out: Max Response; for EC50: read-out: RC50 (EC50); for IC50: read-out: RC50 (IC50)
T4 construct: purchased Eurofins Panlab Safety47 Safety Scan
T4 sequence (P32238 1-428): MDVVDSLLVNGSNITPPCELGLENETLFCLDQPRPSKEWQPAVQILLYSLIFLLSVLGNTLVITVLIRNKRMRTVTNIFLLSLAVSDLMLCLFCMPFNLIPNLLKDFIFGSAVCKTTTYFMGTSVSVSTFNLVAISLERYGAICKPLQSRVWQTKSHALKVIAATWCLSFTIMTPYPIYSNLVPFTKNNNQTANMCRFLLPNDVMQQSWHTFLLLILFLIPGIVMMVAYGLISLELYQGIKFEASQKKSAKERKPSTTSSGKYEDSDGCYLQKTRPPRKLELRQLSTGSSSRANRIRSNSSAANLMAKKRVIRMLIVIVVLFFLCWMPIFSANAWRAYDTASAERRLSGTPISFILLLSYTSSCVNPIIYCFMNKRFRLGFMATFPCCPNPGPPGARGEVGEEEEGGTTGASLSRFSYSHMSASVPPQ

COX2 = molecular target: T5, COX2 (Homo sapiens, UniProt P35354); experiment: Safety47 Enzymatic COX2; assay type: biochemical; conditions: Inhibitor; for Emax: read-out: Max Response; for IC50: read-out: RC50 (IC50)
T5 construct: purchased Eurofins Panlab (Safety47 Safety Scan, contract panel)
T5 sequence (P35354 18-604): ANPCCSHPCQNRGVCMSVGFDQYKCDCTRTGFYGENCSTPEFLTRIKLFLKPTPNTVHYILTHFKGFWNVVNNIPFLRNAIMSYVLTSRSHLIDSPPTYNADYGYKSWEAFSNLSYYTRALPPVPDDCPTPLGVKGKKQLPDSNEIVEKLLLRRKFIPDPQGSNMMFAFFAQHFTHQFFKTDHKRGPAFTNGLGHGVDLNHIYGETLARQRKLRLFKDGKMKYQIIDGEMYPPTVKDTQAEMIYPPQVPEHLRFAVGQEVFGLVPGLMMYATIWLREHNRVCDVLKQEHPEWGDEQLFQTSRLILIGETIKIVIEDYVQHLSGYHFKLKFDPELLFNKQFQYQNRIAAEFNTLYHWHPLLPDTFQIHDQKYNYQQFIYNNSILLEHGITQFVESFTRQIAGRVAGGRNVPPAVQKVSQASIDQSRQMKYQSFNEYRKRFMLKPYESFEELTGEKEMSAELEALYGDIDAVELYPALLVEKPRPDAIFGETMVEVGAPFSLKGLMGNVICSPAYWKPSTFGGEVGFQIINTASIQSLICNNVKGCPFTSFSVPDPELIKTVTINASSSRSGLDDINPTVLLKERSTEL

INSR = molecular target: T6, INSR (Homo sapiens, UniProt P06213); experiment: Safety47 Kinase Binding INSR; conditions: Kinases, Inhibitor; for Emax: read-out: Max Response; for IC50: read-out: RC50 (IC50)
T6 construct: purchased Eurofins Panlab (Safety47 Safety Scan, contract panel)
T6 sequence (P06213 28-1382, species assumed): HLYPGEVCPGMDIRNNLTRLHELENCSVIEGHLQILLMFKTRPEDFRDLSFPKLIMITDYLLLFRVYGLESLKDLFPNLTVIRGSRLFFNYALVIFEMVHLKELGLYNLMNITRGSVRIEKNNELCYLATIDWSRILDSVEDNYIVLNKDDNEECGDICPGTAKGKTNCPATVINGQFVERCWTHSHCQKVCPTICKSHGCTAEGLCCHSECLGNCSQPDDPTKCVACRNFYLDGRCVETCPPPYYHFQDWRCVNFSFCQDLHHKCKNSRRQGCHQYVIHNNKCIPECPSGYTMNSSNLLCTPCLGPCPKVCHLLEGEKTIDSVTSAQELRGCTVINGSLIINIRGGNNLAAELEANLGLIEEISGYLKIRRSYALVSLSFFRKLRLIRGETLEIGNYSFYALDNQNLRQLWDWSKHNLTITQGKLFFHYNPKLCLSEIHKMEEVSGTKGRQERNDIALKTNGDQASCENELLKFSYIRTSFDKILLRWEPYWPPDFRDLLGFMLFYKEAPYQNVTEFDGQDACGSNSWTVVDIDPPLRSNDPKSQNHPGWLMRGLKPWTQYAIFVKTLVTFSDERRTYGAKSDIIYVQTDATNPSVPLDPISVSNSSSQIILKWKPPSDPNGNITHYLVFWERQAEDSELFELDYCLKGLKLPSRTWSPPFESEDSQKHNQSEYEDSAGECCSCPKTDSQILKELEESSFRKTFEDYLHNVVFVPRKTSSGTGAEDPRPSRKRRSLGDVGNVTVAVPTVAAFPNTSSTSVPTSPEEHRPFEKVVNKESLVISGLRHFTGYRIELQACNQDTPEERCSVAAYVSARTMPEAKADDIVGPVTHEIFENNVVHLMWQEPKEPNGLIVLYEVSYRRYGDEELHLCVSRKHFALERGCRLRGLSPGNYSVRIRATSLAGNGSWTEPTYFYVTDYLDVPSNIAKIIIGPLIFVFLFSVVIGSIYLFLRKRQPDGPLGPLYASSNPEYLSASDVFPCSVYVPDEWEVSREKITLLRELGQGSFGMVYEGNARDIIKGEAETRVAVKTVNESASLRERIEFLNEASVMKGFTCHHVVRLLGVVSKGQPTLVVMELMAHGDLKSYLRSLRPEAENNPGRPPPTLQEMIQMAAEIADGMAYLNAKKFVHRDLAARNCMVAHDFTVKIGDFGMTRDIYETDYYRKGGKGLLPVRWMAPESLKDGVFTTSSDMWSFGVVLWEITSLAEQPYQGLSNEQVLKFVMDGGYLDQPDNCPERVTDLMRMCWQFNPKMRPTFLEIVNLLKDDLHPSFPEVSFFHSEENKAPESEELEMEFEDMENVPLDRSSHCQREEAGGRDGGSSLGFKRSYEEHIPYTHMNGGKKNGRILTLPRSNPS

CNR2 = molecular target: T7, CNR2 (Homo sapiens, UniProt P34972); experiment: Safety47 cAMP CNR2; assay type: cell-based; conditions: for Emax: read-out: Max Response; for EC50: read-out: RC50 (EC50); for IC50: read-out: RC50 (IC50)
T7 construct: purchased Eurofins Panlab Safety47 Safety Scan
T7 sequence (P34972 whole entry): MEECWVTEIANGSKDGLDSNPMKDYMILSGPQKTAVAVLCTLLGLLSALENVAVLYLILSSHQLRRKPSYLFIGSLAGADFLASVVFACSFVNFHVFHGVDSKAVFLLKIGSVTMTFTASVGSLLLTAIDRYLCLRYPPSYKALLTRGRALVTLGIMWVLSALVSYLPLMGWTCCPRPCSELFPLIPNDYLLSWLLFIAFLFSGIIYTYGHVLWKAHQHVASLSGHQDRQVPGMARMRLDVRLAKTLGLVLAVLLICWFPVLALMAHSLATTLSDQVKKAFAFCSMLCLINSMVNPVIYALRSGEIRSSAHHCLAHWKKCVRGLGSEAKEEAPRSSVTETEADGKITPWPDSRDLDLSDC

LCK = molecular target: T8, LCK (Homo sapiens, UniProt P06239); experiment: Safety47 Kinase Binding LCK; conditions: Kinases, Inhibitor; for Emax: read-out: Max Response; for IC50: read-out: RC50 (IC50)
T8 construct: purchased Eurofins Panlab (Safety47 Safety Scan, contract panel)
T8 sequence (P06239 whole entry, species assumed): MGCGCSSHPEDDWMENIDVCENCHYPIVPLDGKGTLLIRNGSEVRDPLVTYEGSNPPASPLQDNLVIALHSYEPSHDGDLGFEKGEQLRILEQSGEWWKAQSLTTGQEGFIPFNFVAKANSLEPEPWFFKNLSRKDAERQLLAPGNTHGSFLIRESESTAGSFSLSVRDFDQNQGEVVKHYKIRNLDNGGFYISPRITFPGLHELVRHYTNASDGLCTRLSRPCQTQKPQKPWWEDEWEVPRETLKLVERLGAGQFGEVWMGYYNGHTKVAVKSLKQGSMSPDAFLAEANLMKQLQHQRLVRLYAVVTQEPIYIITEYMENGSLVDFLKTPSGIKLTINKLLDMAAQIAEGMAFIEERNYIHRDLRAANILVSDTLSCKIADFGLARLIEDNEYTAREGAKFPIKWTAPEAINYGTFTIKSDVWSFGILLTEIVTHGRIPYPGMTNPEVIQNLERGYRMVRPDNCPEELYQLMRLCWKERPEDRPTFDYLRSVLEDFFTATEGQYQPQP

T1 sequence (Q13224 27-1484, other chains not shown): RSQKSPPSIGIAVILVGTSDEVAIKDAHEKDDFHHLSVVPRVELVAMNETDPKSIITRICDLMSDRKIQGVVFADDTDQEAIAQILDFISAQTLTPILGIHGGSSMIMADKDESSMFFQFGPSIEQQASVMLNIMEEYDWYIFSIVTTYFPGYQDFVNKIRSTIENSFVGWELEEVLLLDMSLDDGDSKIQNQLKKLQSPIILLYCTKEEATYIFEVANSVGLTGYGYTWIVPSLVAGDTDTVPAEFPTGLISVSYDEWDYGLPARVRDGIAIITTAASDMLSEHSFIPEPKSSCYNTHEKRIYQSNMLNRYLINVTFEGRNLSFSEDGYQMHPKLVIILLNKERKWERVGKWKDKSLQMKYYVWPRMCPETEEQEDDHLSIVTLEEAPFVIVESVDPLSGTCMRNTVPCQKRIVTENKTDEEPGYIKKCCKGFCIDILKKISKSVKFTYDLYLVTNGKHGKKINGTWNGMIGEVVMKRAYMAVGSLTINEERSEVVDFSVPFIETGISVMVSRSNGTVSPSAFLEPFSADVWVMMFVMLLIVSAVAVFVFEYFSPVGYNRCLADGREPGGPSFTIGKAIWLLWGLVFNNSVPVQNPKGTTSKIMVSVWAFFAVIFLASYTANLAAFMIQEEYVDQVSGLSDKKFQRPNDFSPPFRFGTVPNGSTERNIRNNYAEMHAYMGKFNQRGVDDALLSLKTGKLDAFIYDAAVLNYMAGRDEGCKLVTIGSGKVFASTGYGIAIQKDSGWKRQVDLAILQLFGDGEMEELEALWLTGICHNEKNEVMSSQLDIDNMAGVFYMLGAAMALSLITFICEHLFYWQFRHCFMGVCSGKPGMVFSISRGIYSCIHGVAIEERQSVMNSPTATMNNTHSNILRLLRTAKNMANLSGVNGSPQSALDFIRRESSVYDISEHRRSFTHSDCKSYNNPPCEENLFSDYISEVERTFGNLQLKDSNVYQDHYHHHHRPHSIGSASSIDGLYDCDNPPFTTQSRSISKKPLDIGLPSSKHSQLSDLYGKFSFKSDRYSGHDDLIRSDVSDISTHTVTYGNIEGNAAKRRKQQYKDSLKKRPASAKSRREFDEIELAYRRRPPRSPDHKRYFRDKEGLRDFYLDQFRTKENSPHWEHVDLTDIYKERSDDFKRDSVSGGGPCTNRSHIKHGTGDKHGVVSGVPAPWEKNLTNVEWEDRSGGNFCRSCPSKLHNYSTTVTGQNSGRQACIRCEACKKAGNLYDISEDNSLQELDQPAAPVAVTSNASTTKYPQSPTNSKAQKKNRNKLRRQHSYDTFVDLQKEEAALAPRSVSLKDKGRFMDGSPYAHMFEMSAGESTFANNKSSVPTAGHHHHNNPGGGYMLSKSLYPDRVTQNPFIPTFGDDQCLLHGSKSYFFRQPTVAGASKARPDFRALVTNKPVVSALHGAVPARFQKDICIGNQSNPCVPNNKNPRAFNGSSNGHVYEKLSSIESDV

SMILES	Emax (NMDAR (1A/2B); Blocker) [%]	IC50 (NMDAR (1A/2B); Blocker) [µM]	Emax (NMDAR (1A/2B); Opener) [%]	EC50 (NMDAR (1A/2B); Opener) [µM]	Emax (EDNRA; Agonist) [%]	EC50 (EDNRA; Agonist) [µM]	Emax (EDNRA; Antagonist) [%]	IC50 (EDNRA; Antagonist) [µM]	Emax (SERT) [%]	IC50 (SERT) [µM]	TFEB ubiquitination (TFEB ubiquitination)	Emax (CCKAR; Agonist) [%]	EC50 (CCKAR; Agonist) [µM]	Emax (CCKAR; Antagonist) [%]	IC50 (CCKAR; Antagonist) [µM]	Emax (COX2) [%]	IC50 (COX2) [µM]	Emax (INSR) [%]	IC50 (INSR) [µM]	Emax (CNR2; Agonist) [%]	also measured
Cl.c1ccc2c(Nc3ccc4[nH]ccc4c3)nc(-c3ccncc3)nc2c1 [BC18630, N-1H-indol-5-yl-2-pyridin-4-ylquinazolin-4-amine hydrochloride]	0	> 10	0	> 10	0	> 10	3.72	> 10	0	> 10	decreased	1.69	> 10	0	> 10	8.53	> 10	15.6	> 10	27.8	EC50 (CNR2; Agonist): > 10 µM; Emax (CNR2; Antagonist): 0%; IC50 (CNR2; Antagonist): > 10 µM; Emax (LCK): 49.1%; IC50 (LCK): > 10 µM
Cl.Fc1cc(Nc2nc(-c3ccncc3)nc3ncccc23)cc2cc[nH]c12 [BC18813, N-(7-fluoro-1H-indol-5-yl)-2-pyridin-4-ylpyrido[2,3-d]pyrimidin-4-amine hydrochloride]	13.8	> 10	0	> 10	5.5	> 10	2.32	> 10	0	> 10	decreased	2.97	> 10	0	> 10	17.9	> 10	0	> 10	63.6	Curve Bottom (CNR2; Agonist): 0; Curve Top (CNR2; Agonist): 100; Hill (CNR2; Agonist): 1.05; EC50 (CNR2; Agonist): 4.59 µM; Emax (CNR2; Antagonist): 0%; IC50 (CNR2; Antagonist): > 10 µM; Emax (LCK): 11.2%; IC50 (LCK): > 10 µM
